Data from patent publication US6890919B2, “Atypical antipsychotic agents having low affinity for the D2 receptor” (priority 2001, dated 2005).
pKi: −log10 of the molar value. Structures can show the parent of a compound that is named as a salt.

How the values were obtained:
dopamine D2 receptor = dopamine D2 receptor (Homo sapiens, UniProt P14416); test: Binding affinity for dopamine D2 receptor, 3H-raclopride as ligand (Seeman 1993)
Source text: As will be appreciated by those skilled in the art, Ki values depend on the method of measurement, pH, radiolabeling technique, tissue type, temperature and type of wash used.

rats [1] = test: Conditioned avoidance response (CAR), two-way active avoidance shuttlebox; assay type: in vivo
Protocol: Therefore the new compounds were tested for activity in this model. For conditioned avoidance-response, rats were trained and tested in a computer assisted two-way active avoidance (shuttlebox), with an 80 dB white-noise as a conditioned stimulus, followed ten seconds later by a 0.6 mA shock as the unconditioned stimulus. Details of the procedure have been described elsewhere (Wadenberg M L et al. 2000).

dopamine D2 receptors = biological target: T1, dopamine D2 receptors (Rattus norvegicus, UniProt P61169); test: In-vivo D2 receptor occupancy with 3H-raclopride; conditions: rats; for ED50: rat, sc in acidified saline; for D2 occupancy: dose 1-40 mg/kg/sc in acidified saline, sacrifice 1 hour after drug
T1 construct: Striata and cerebella were rapidly dissected, processed and analyzed as described by Kapur et al. (2000b); from tissue; host or cells: rat brain in vivo (striatum; cerebellum also dissected)
Protocol: (§1) To document the fact that the compounds cross the blood brain barrier, occupancy at the dopamine D2 receptors using in-vivo occupancy measures was examined in rats. The test compound was injected subcutaneously followed 30 minutes later by an intravenous injection of ^3H-raclopride. The animals were sacrificed 1 hour after drug administration. In animals combining occupancy and catalepsy, rats were tested for catalepsy 10 minutes before sacrifice. Animals were sacrificed by decapitation. Striata and cerebella were rapidly dissected, processed and analyzed as described by Kapur et al. (2000b) Compounds which crossed the blood brain barrier and gave predictable dose-response relationships were then tested to see if they gave catalepsy. Catalepsy is the time-honoured animal model to predict the propensity of compounds to give rise to extrapyramidal side-effects in humans. Catalepsy was measured using a grid-test by a rater blind to the treatment-assignment. The time that animals remained immobile was used as an index of catalepsy by transforming raw-scores into catalepsy scores, with a score of 1 as questionable catalepsy and scores of 2-5 reflecting severity of catalepsy (Ahlenius S et al. 1986).

rats [2] = test: Catalepsy grid-test (motor side-effects); assay type: in vivo; conditions: for motor-side-effects (catalepsy): sc, doses 1-40 mg/kg
Protocol: as §1

FOS protein = test: FOS immunohistochemistry; assay type: in vivo; conditions: rats, two hours after injection; for FOS protein induction in the nucleus accumbens: shell of nucleus accumbens
Protocol: In particular, all antipsychotics induce FOS in the nucleus accumbens regions while those likely to give rise to motor side-effects also induce FOS in the dorsolateral striatum (Robertson et al. 1994). For examining the distribution of FOS protein by the test compound, the test compound was injected into rats and two hours later, the animals were deeply anaesthetized with sodium phenobarbitol (100 mg/kg i.p.) and perfused transcardially, the brains removed and post-fixed. Immunostaining was performed on free-floating forty-micron sections with a rabbit-raised polyclonal primary anti-FOS antiserum (diluted 1:250 and incubated 48 hours at 4° C.) (4-17 aminoacids of human Fos; Oncogene Research Products, Cambridge, Mass., USA). Exposure to a biotinylated goat anti-rabbit secondary antibody (1:600, Vector Laboratories, Burlingame, Calif., USA) followed by incubation with horseradish peroxidase avidin-biotin complex (Vector Laboratories, Vector Laboratories, Burlingame, Calif., USA) was used to visualize the FOS staining. Fos-immunoreactive nuclei were counted within 400×400 μm grid at a magnification of 100× in the shell of nucleus accumbens and dorsolateral striatum.

Chain of dopamine D2 receptor (P14416 whole entry, species assumed): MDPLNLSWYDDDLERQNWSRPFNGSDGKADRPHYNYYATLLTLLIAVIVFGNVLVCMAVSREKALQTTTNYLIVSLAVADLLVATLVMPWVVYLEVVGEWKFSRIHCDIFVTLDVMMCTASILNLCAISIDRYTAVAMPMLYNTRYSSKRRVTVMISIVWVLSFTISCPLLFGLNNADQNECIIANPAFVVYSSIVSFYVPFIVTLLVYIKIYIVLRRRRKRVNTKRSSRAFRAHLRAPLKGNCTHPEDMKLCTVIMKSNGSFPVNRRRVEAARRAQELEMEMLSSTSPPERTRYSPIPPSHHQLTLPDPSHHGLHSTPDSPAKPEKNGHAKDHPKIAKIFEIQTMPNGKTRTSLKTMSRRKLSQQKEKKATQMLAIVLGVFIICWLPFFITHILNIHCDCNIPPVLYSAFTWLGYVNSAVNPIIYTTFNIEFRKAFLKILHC
T1 sequence (P61169 whole entry): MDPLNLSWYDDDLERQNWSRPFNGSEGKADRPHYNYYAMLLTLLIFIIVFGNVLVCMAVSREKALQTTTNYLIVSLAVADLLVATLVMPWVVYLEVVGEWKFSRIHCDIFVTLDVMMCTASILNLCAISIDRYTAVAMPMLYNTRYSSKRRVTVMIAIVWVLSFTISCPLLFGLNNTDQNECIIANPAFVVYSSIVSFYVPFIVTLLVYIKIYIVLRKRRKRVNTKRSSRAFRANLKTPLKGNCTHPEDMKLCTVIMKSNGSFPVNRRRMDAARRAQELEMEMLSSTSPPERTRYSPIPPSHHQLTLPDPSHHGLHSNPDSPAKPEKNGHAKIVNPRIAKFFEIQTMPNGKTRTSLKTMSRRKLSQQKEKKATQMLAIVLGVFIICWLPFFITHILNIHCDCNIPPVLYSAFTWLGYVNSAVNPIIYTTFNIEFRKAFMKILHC

Compound | pKi (dopamine D2 receptor) | melting point | also measured
CCN1CCN(C2=Nc3cc(C(F)(F)F)ccc3Oc3ccccc32)CC1 [Example 1, 8-Trifluoromethyl-11-(4-ethylpiperazin-1-yl)-dibenzo[b,f][1,4]oxazepine] | 6.59 | 76 to 77 °C | 
CCCCN1CCN(C2=Nc3cc(C(F)(F)F)ccc3Oc3ccccc32)CC1 [Example 5, 8-Trifluoromethyl-11-(4-butylpiperazin-1-yl)-dibenzo[b,f][1,4]oxazepine.HCl] | 6.60 |  | 
O=C(CCCN1CCC(O)(c2ccc(Cl)cc2)CC1)c1ccc(F)cc1 [haloperidol, reference compound] |  |  | inhibition of avoidance (rats [1]; >0.05 mg/kg/sc, without catalepsy or escape deficits): robust inhibition of avoidance; FOS protein induction in the dorsolateral striatum (FOS protein): resulted in FOS in the dorsolateral striatum; FOS protein induction in the nucleus accumbens (FOS protein): robust FOS induction
CC(C)N1CCN(C2=Nc3cc(C(F)(F)F)ccc3Oc3ccccc32)CC1 (as salt: HCl) [Example 4, 8-Trifluoromethyl-11-(4-isopropylpiperazin-1-yl)-dibenzo[b,f][1,4]oxazepine.HCl] |  | 270 °C (dec.) | 
CC(C)N1CCN(C2=Nc3cc(C(F)(F)F)ccc3Oc3ccccc32)CC1 [Example 4, 8-Trifluoromethyl-11-(4-isopropylpiperazin-1-yl)-dibenzo[b,f][1,4]oxazepine.HCl] | 6.67 |  | 
CC(C)N1CCN(C2=Nc3cc(Cl)ccc3Oc3ccccc32)CC1 [Example 9, 8-Chloro-11-(4-isopropylpiperazin-1-yl)-dibenzo[b,f][1,4]oxazepine] | 6.82 | 55 to 56 °C | 
CN1CCN(C2=Nc3cc(Cl)ccc3Nc3ccccc32)CC1 [Clozapine, reference compound] |  |  | catalepsy (rats [2]; doses up to 20 mg/kg/sc): did not give rise to catalepsy
CCCCN1CCN(C2=Nc3cc(C(F)(F)F)ccc3Oc3ccccc32)CC1 (as salt: HCl) [Example 5, 8-Trifluoromethyl-11-(4-butylpiperazin-1-yl)-dibenzo[b,f][1,4]oxazepine.HCl] |  | 240 °C (dec.) | 
OCCN1CCN(C2=Nc3cc(Cl)ccc3Oc3ccccc32)CC1 [Example 7, 8-Chloro-11-(4-(2′-hydroxyethyl)piperazin-1-yl)-dibenzo[b,f][1,4]oxazepine] | 6.97 | 149 to 150 °C | inhibition at 20 mg/kg (rats [1]; Rattus norvegicus, 20 mg/kg/sc): > 50%; ED50 (dopamine D2 receptors): 10 mg/kg; D2 occupancy (dopamine D2 receptors): 22-75%; motor-side-effects (catalepsy) (rats [2]): No animals showed any evidence of motor-side-effects
OCCN1CCN(C2=Nc3cc(C(F)(F)F)ccc3Oc3ccccc32)CC1 [Example 2, 8-Trifluoromethyl-11-(4-(2′-hydroxyethyl)piperazin-1-yl)-dibenzo[b,f][1,4]oxazepine] | 6.38 | 110 to 111 °C | 

Now from value to compound, other results behind:

pKi (dopamine D2 receptor) | melting point | Compound | also measured
7.38 |  | CCN1CCN(C2=Nc3cc(Cl)ccc3Oc3ccccc32)CC1 [Example 6, 8-Chloro-11-(4-ethylpiperazin-1-yl)-dibenzo[b,F][1,4]oxazepine] | inhibition at 10 mg/kg (rats [1]; Rattus norvegicus, 10 mg/kg/sc): > 50%; ED50 (dopamine D2 receptors): ~5 mg/kg; D2 occupancy (dopamine D2 receptors): 5-81%; motor-side-effects (catalepsy) (rats [2]): No animals showed any evidence of motor-side-effects; FOS protein induction in the dorsolateral striatum (FOS protein): no induction; FOS protein induction in the nucleus accumbens (FOS protein): robust induction
7.24 |  | CC(C)N1CCN(C2=Nc3cc(Cl)ccc3Sc3ccccc32)CC1 [Example 15, 8-Chloro-11-(4-isopropylpiperazin-1-yl)-dibenzo[b,f][1,4]thiazepine.HCl] | 
7.20 | 100 to 101 °C | CCN1CCN(C2=Nc3cc(Cl)ccc3Sc3ccccc32)CC1 [Example 12, 8-Chloro-11-(4-ethylpiperazin-1-yl)-dibenzo[b,f][1,4]thiazepine] | 
7.55 | 97 to 98 °C | CCCCN1CCN(C2=Nc3cc(Cl)ccc3Oc3ccccc32)CC1 [Example 10, 8-Chloro-11-(4-butylpiperazin-1-yl)-dibenzo[b,f][1,4]oxazepine] | 
7.64 | 90 to 91 °C | CCCN1CCN(C2=Nc3cc(Cl)ccc3Oc3ccccc32)CC1 [Example 8, 8-Chloro-11-(4-propylpiperazin-1-yl)-dibenzo[b,f][1,4]oxazepine] | 
7.06 | 110 to 111 °C | OCCN1CCN(C2=Nc3cc(Cl)ccc3Sc3ccccc32)CC1 [Example 13, 8-Chloro-11-(4-(2′-hydroxyethyl)piperazin-1-yl)-dibenzo[b,f][1,4]thiazepine] | 
